Data published in patent publication US3984482A, “2-(Dihalobenzyl)-6-nitro-4-t-butylphenol and preparation thereof” (Institut de Recherches Chimiques et Biologiques Appliquees …, priority 1967, dated 1976).
Where two headings read alike, the source gives them in different places.

Assays:
[1] = Acute toxicity per os in mice (LD 50, maximum tolerated dose); type: in vivo; settings: mouse, po; for LD50: read-out: Approximate LD 50; for MTD: read-out: Approximate maximum tolerated dose
Description: The acute toxicity per os was determined in mice by the following method. Different doses of each compound were each tested on 10 mice, both male and female, weighing on average from 18 to 22 g; each dose was administered as a suspension in 10% gum arabic or olive oil and each mouse was given a uniform dose of 0.4 ml per 20 g weight of mouse with the aid of a probang.
The mice were starved for two hours before the experiment and the temperatures and behaviour of the animals were observed before the test and 11/2 and 3 hours after ingestion of the compound. After this time they were replaced in their cages and observed for several days.
The number of dead was counted daily and from this was deduced the lethal dose 50 (LD 50), the maxmum tolerated dose (MTD) and the minimum mortal dose MMD).

London staphylococcus = experiment: Bacteriostatic activity in vitro by progressive dilution in culture broth, London staphylococcus; type: cell-based, Gram-positive London staphylococcus; settings: conditions under which the compounds of Formula I were tested
Description: The bacteriostatic activities in vitro of the compounds of Formula I were determined by comparing them with known products, particularly of analogous series. The activity was determined with respect to the specific Gram-positive London staphylococcus as a reference strain for all the compounds.
The test was carried out in a culture broth of the following formula: […]
Indole-free bacteriological peptone
Sodium chloride 5% by weight
The method used involved progressive dilution of the principle tested. The dilutions varied by thousandths between concentrations of one thousandth and one tenth of a thousandth, and by 10 thousandths for concentrations between one tenth of a thousandth and 1/100 of a thousandth, and by hundred thousandths for concentrations between 1/100 of a thousandth and one millionth. If the product was found active at a dilution of one millionth, a new range was made from millionth to millionth to beyond one millionth.
Two dilution series were made independently and the results of the two series must be identical. The readings were carried out after 24 hours.
The figure given in the table is that of the maximum dilution at which the growth of London staphylococcus is inhibited.

| SMILES | LD50 ([1]; solvent olive oil) [mg/kg] | MTD ([1]; solvent olive oil) [mg/kg] | further results |
| --- | --- | --- | --- |
| CCC(C)c1ccc(O)c(Cc2ccc(Cl)cc2)c1 (stereo not shown) [Example 1, 2-(4'-chlorobenzyl)-4-sec-butylphenol] | – | – | LD50 ([1]; solvent 10% gum): 1000 mg/kg; MTD ([1]; solvent 10% gum): 500 mg/kg |
| CC(C)(C)c1ccc(O)c(Cc2ccc(Cl)cc2)c1 [Example 3, 2-(4'-chlorobenzyl)-4-t-butylphenol] | – | – | LD50 ([1]; solvent 10% gum): 1900 mg/kg |
| CC(C)c1ccc(O)c(Cc2ccc(Cl)cc2)c1 [Example 2, 2-(4'-chlorobenzyl)-4-isopropylphenol] | 1700 | 500 | – |
| CCC(C)c1ccc(O)c(Cc2ccc(Cl)c(Cl)c2)c1 (stereo not shown) [Example 8, 2-(3',4'-dichlorobenzyl)-4-s-butylphenol] | 2400 | 1000 | – |
| CC(C)(C)c1cc(Cl)c(O)c(Cc2ccc(Cl)c(Cl)c2)c1 [Example 9, 2-(3',4'-dichlorobenzyl)-6-chloro-4-t-butylphenol] | > 2500 | 500 | – |
| Oc1ccccc1 [Phenol] | – | – | inhibiting dilution (London staphylococcus): 1/1000 |
| CC(C)(C)c1cc(Cl)c(O)c(Cc2ccc(Cl)cc2Cl)c1 [Example 10, 2-(2',4'-dichlorobenzyl)-6-chloro-4-t-butylphenol] | 1500 | 500 | – |
| CC(C)(C)c1ccc(O)c(Cc2ccc(Cl)c(Cl)c2)c1 [Example 7, 2-(3',4'-dichlorobenzyl)-4-t-butylphenol] | 1500 | 500 | – |
| CC(C)(C)c1ccc(O)c(Cc2ccc(Cl)cc2Cl)c1 [Example 5, 2-(2',4'-dichlorobenzyl)-4-t-butylphenol] | 1700 | 500 | – |
| Cc1ccc(O)cc1 [Para-cresol] | – | – | inhibiting dilution (London staphylococcus): 1/4000 |
| CC(C)c1ccc(O)c(Cc2ccc(Cl)cc2Cl)c1 [Example 4, 2-(2',4'-dichlorobenzyl)-4-isopropylphenol] | 1700 | 500 | – |
